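These data come from cells grown in 96-well plates and exposed to compound for 48 hours at five concentrations. Abbreviation: GI50, concentration required for 50% inhibition of growth. TGI marks complete inhibition of growth.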
Key:
Assay in all cases: NCI-60 cell line screen, 48 h
[1] = tested on: NCI-H522 lung
[2] = tested on: SNB-75 CNS
[3] = tested on: RPMI-8226 leukemia
[4] = tested on: A549 NSCLC
[5] = tested on: CAKI-1 renal
[6] = tested on: KM12 colon
[7] = tested on: SF-295 CNS
[8] = tested on: TK-10 renal
[9] = tested on: NCI-H226 lung
[10] = tested on: PC-3 prostate

Structure (SMILES): Clc1cc(Cl)cc(C2SCc3nc4ccccc4n32)c1 (configuration not stated)
- TGI [1]: 39.3 µM
- TGI [2]: > 100 µM
- TGI [3]: 98.4 µM
- TGI [4]: 76.1 µM
- TGI [5]: 44.2 µM
- TGI [6]: 37.3 µM
- TGI [7]: 29.3 µM
- TGI [8]: 70.2 µM
- TGI [9]: 37.3 µM

Structure (SMILES): N#Cc1c(N)n(C2OC(CO)C(O)C2O)c2ncnc(N)c12 (configuration not stated)
- TGI [2]: 3.56 µM
- TGI [10]: 0.578 µM
- TGI [3]: 3.59 µM
- TGI [5]: 0.263 µM
- TGI [6]: 1.98 µM
- TGI [7]: 2.45 µM
- TGI [9]: 0.372 µM

Structure (SMILES): Clc1cc2nc[nH]c2cc1Cl
- TGI [2]: 83.9 µM
- TGI [3]: > 100 µM
- TGI [4]: > 100 µM
- TGI [5]: > 100 µM
- TGI [6]: > 100 µM
- TGI [7]: > 100 µM
- TGI [8]: > 100 µM
- TGI [9]: > 100 µM

Structure (SMILES): CCOC(=O)C1Nc2ccc([N+](=O)[O-])cc2[C@H]2OCC[C@@H]12 (some centres not stated)
- TGI [1]: > 100 µM
- TGI [2]: > 100 µM
- TGI [4]: > 100 µM
- TGI [5]: > 100 µM
- TGI [6]: > 100 µM
- TGI [7]: > 100 µM
- TGI [8]: > 100 µM
- TGI [9]: > 100 µM

Structure (SMILES): CCOC(=O)NC(=O)c1cn(CC(=O)NCC(=O)NCC(=O)N2CCN(CCn3c(C)nc(C(N)=O)c3N)CC2)c(=O)[nH]c1=O
- TGI [2]: > 100 µM
- TGI [4]: > 100 µM
- TGI [5]: > 100 µM
- TGI [6]: > 100 µM
- TGI [7]: > 100 µM
- TGI [8]: > 100 µM

Structure (SMILES): O=C1C2c3[nH]c4ccccc4c3C3CCC(c4ccccc4)CC3C2C(=O)N1c1ccccc1 (configuration not stated)
- TGI [2]: 55.9 µM
- TGI [3]: > 100 µM
- TGI [4]: > 100 µM
- TGI [6]: > 100 µM
- TGI [7]: > 100 µM
- TGI [8]: > 100 µM
- TGI [9]: > 100 µM

Structure (SMILES): Nc1nc(=O)c2[nH]cnc2n1O
- TGI [1]: > 100 µM
- TGI [2]: > 100 µM
- TGI [10]: > 100 µM
- TGI [3]: > 100 µM
- TGI [4]: > 100 µM
- TGI [6]: > 100 µM
- TGI [7]: > 100 µM
- TGI [8]: > 100 µM
- TGI [9]: > 100 µM

Structure (SMILES): COc1ccc(-c2cc(=O)c3c(OC)c(O)c(OC)cc3o2)cc1
- TGI [1]: > 100 µM
- TGI [2]: > 100 µM
- TGI [3]: 99.3 µM
- TGI [4]: > 100 µM
- TGI [5]: > 100 µM
- TGI [7]: > 100 µM
- TGI [8]: 94 µM
- TGI [9]: > 100 µM

Structure (SMILES): O=C(NCCN1CCOCC1)Nc1nc2ccc(Sc3nnc4ccc(-c5ccc(F)cc5)nn34)cc2s1
- GI50 [1]: 26.4 µM
- TGI [1]: > 100 µM
- GI50 [10]: > 100 µM
- TGI [10]: > 100 µM
- GI50 [4]: > 100 µM
- TGI [4]: > 100 µM
- TGI [5]: > 100 µM
- GI50 [6]: 0.571 µM
- TGI [6]: > 100 µM
- GI50 [7]: 0.101 µM
- TGI [7]: 1.95 µM
- GI50 [8]: > 100 µM
- TGI [8]: > 100 µM
- GI50 [9]: 3.67 µM
- TGI [9]: > 100 µM

Structure (SMILES): CCCCN1C(=O)C2c3[nH]c4ccccc4c3C3CCCCC3C2C1=O (mixture of isomers)
- TGI [2]: 21.9 µM
- TGI [4]: 45 µM
- TGI [5]: 20.4 µM
- TGI [7]: 23.7 µM
- TGI [8]: 33.9 µM

Structure (SMILES): CN(C)c1ccc(/C=N/NC(=O)CSc2nc3sc4c(c3c(=O)n2-c2ccccc2)CCCCC4)cc1
- GI50 [1]: 3.89 µM
- TGI [1]: > 100 µM
- GI50 [2]: 2.68 µM
- TGI [2]: 14.6 µM
- GI50 [3]: > 100 µM
- TGI [3]: > 100 µM
- GI50 [4]: 4.25 µM
- TGI [4]: > 100 µM
- GI50 [5]: 5.07 µM
- TGI [5]: > 100 µM
- GI50 [6]: > 100 µM
- TGI [6]: > 100 µM
- GI50 [7]: 3.39 µM
- TGI [7]: 20.7 µM
- GI50 [8]: 4.16 µM
- TGI [8]: > 100 µM
- GI50 [9]: 4.26 µM
- TGI [9]: > 100 µM

Structure (SMILES): OCC(O)C(O)C(O)c1nn[nH]n1 (configuration not stated)
- TGI [1]: > 100 µM
- TGI [2]: > 100 µM
- TGI [3]: > 100 µM
- TGI [5]: > 100 µM
- TGI [6]: > 100 µM
- TGI [7]: > 100 µM
- TGI [9]: > 100 µM

Structure (SMILES): C[C@]12CC/C(=N\O)C[C@@H]1CC[C@@H]1[C@@H]2CC[C@]2(C)/C(=N/O)CC[C@@H]12
- GI50 [1]: 21 µM
- TGI [1]: 58.3 µM
- GI50 [2]: 37.3 µM
- TGI [2]: > 100 µM
- GI50 [10]: 43.7 µM
- TGI [10]: > 100 µM
- GI50 [3]: 15.9 µM
- TGI [3]: 52 µM
- GI50 [4]: 52.7 µM
- TGI [4]: > 100 µM
- GI50 [5]: 25.4 µM
- TGI [5]: 86.2 µM
- GI50 [6]: 20.9 µM
- TGI [6]: 47.4 µM
- GI50 [7]: 38.2 µM
- TGI [7]: > 100 µM
- GI50 [8]: 32.1 µM
- TGI [8]: > 100 µM

Structure (SMILES): C[C@]12CC[C@H](OC(=O)Cc3ccc(N(CCCl)CCCl)cc3)CC1CC[C@@H]1C2CC[C@]2(C)NC(=O)CCC12 (some centres not stated)
- TGI [1]: 25.4 µM
- TGI [2]: 27.4 µM
- TGI [3]: 23 µM
- TGI [4]: 37.5 µM
- TGI [5]: 15.3 µM
- TGI [6]: 25.5 µM
- TGI [7]: 25.2 µM
- TGI [8]: 44.4 µM
- TGI [9]: 69.6 µM

Structure (SMILES): Cc1ccc2oc(=O)cc(CC(=O)O)c2c1
- TGI [1]: > 100 µM
- TGI [2]: > 100 µM
- TGI [3]: > 100 µM
- TGI [4]: > 100 µM
- TGI [5]: > 100 µM
- TGI [6]: > 100 µM
- TGI [7]: > 100 µM
- TGI [8]: > 100 µM
- TGI [9]: > 100 µM

Structure (SMILES): [O-]c1ccccc1[C-]=Nc1ccccc1O.[O-]c1ccccc1[C-]=Nc1ccccc1O.[O]=[U]=[O]
- GI50 [1]: 4.01 µM
- TGI [1]: 51.8 µM
- GI50 [2]: 25.1 µM
- TGI [2]: 64.5 µM
- GI50 [3]: 1.59 µM
- TGI [3]: 49.5 µM
- GI50 [4]: 16.2 µM
- TGI [4]: 43.9 µM
- GI50 [5]: 12.5 µM
- TGI [5]: 37.3 µM
- GI50 [6]: 6.35 µM
- TGI [6]: > 100 µM
- GI50 [7]: 16.4 µM
- TGI [7]: 43.5 µM
- GI50 [8]: 28.9 µM
- TGI [8]: 55.5 µM

Structure (SMILES): CC(C)(C)c1cc(O)c2c(c1O)C(=O)CCC2
- TGI [2]: > 100 µM
- TGI [3]: 54.1 µM
- TGI [4]: > 100 µM
- TGI [5]: 82.3 µM
- TGI [7]: 99.2 µM
- TGI [8]: > 100 µM

Structure (SMILES): CCCCCCN(CCCCCC)C1=CC(=O)C(=O)c2ccccc21
- TGI [1]: 24.2 µM
- TGI [2]: 31.1 µM
- TGI [3]: 60.2 µM
- TGI [4]: 36.5 µM
- TGI [5]: 28.6 µM
- TGI [6]: 31.5 µM
- TGI [7]: 29.1 µM
- TGI [8]: 36.1 µM
- TGI [9]: 34.7 µM

Structure (SMILES): CN1CCN2c3ccccc3CC(C#N)(C#N)C2C1 (configuration not stated)
- TGI [1]: > 100 µM
- TGI [2]: > 100 µM
- TGI [3]: > 100 µM
- TGI [4]: > 100 µM
- TGI [5]: > 100 µM
- TGI [6]: > 100 µM
- TGI [7]: > 100 µM
- TGI [8]: > 100 µM
- TGI [9]: > 100 µM

Structure (SMILES): CC[C@@]1(O)C(=O)OCc2c1cc1n(c2=O)Cc2cc3c([N+](=O)[O-])c(O)ccc3nc2-1
- GI50 [1]: 0.132 µM
- TGI [1]: 3.07 µM
- GI50 [2]: 0.151 µM
- TGI [2]: 1.12 µM
- GI50 [3]: 0.848 µM
- TGI [3]: 9.39 µM
- GI50 [4]: 0.426 µM
- TGI [4]: 18.3 µM
- GI50 [5]: 0.0864 µM
- TGI [5]: 8.47 µM
- GI50 [6]: 1.68 µM
- TGI [6]: 20.9 µM
- GI50 [7]: 0.155 µM
- TGI [7]: 2.2 µM
- GI50 [8]: 19.5 µM
- TGI [8]: > 85.6 µM
- GI50 [9]: 1.29 µM

Structure (SMILES): CN1C(=O)C(C)(C)NS1(=O)=O
- TGI [2]: > 100 µM
- TGI [3]: > 100 µM
- TGI [4]: > 100 µM
- TGI [5]: > 100 µM
- TGI [6]: > 100 µM
- TGI [7]: > 100 µM
- TGI [8]: > 100 µM

Reference: PubChem BioAssay (NCI)
